The source of these data is US20250320184A1 (SIRONAX LTD., priority 2022, published 2025).

The assay has as its target T1, SARM1 (50-724) (Homo sapiens, UniProt Q6SZW1).
T1 sequence (Q6SZW1 50-724): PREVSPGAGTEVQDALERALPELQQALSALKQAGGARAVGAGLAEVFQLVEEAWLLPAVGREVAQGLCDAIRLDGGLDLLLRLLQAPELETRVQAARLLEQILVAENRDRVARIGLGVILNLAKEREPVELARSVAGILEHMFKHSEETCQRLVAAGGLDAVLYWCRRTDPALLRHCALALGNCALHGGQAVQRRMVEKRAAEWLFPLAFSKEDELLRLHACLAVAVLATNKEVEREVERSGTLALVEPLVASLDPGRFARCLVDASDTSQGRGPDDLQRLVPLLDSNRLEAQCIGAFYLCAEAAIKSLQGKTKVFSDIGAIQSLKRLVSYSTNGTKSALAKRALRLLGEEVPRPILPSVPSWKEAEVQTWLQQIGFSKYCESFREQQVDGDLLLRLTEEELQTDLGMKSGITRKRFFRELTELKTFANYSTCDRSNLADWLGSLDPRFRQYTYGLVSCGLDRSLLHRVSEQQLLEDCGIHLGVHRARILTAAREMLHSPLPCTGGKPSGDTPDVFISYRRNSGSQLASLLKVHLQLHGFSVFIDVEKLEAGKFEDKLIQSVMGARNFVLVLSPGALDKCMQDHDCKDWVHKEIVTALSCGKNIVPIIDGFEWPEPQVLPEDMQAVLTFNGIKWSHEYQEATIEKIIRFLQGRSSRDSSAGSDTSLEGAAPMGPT
In words: biochemical.
Description: An enzymatic assay was performed in a 384-well plate using Dulbecco's phosphate-buffered saline (PBS) as the reaction buffer. […] The reaction was initiated by adding a mixture of 200 μM nicotinamide mononucleotide (NMN) as activator and 100 μM NAD^+ as substrate. After 1 h of incubation at room temperature, the reaction was terminated with 10 times volume of 70% acetonitrile, then centrifuged at 3800 rpm for 10 min.
Usually IC50 stands for the concentration needed to halve the response being measured. Lower therefore signals greater potency. For `CC(Nc1ccc2c(c1)C(=O)N(C(C)C(N)=O)C2(C)C)c1nc(Cl)c(Cl)s1` (mixture of isomers) [Compound 334, 2-(5-((1-(4,5-dichlorothiazol-2-yl)ethyl)amino)-1,1-dimethyl-3-oxoisoindolin-2-yl)propanamide], the 50% inhibitory concentration (IC50) is < 100 nM. Take `Cc1c2ccc(NC(C)c3nc(Cl)c(Cl)s3)cc2nn1C1CC(O)C1` (mixture of isomers) [Compound 339, 3-(6-((1-(4,5-dichlorothiazol-2-yl)ethyl)amino)-3-methyl-2H-indazol-2-yl)cyclobutan-1-ol]: the concentration for half-maximal inhibition (IC50) was < 100 nM. As for `CC(Nc1cc(F)c2ncn(C3CC(O)C3)c(=O)c2c1)c1cncc(Cl)c1Cl` (mixture of isomers) [Compound 348, 6-((1-(4,5-dichloropyridin-3-yl)ethyl)amino)-8-fluoro-3-(3-hydroxycyclobutyl)quinazolin-4(3H)-one], the figure is < 100 nM. With `O=C1NCCc2ccc(NS(=O)(=O)N3CCCC4CCCCC43)cc21` (mixture of isomers) [Example 170, N-(1-oxo-1,2,3,4-tetrahydroisoquinolin-7-yl)octahydroquinoline-1(2H)-sulfonamide], the 50% inhibitory concentration (IC50) is > 1000 nM. As for `O=C1NCCc2ccc(NS(=O)(=O)N3CCCC4CCCC43)cc21` (mixture of isomers) [Example 171], the half-maximal inhibitory concentration (IC50) was 100 to 500 nM. In the case of `CC1CCC(C)N(S(=O)(=O)Nc2ccc3c(c2)C(=O)NCC3)C1` (mixture of isomers) [Example 172, 2,5-dimethyl-N-(1-oxo-1,2,3,4-tetrahydroisoquinolin-7-yl)piperidine-1-sulfonamide], the IC50 was > 1000 nM. Compound `Cc1n[nH]c(=O)c2cc(NC(CC(O)CCO)c3nc(Cl)c(Cl)s3)ccc12` (mixture of isomers) [Example 293, 7-((1-(4,5-dichlorothiazol-2-yl)-3,5-dihydroxypentyl)amino)-4-methylphthalazin-1(2H)-one] yielded an IC50 of 100 to 500 nM.

Take `CCC1CCCCN1S(=O)(=O)Nc1ccc2c(c1)C(=O)NCC2` (racemic) [Compound 48, 2-ethyl-N-(1-oxo-1,2,3,4-tetrahydroisoquinolin-7-yl)piperidine-1-sulfonamide]: the half-inhibitory concentration (IC50) was > 1000 nM.

As for `O=S(=O)(Nc1ccc2c(c1)C(O)CCC2)c1cccc(Cl)c1Cl` (racemic) [Compound 56, 2,3-dichloro-N-(8-hydroxy-5,6,7,8-tetrahydronaphthalen-2-yl)benzenesulfonamide], the IC50 is < 100 nM. As for `COC(=O)C1Cc2ccc(NS(=O)(=O)c3cccc(Cl)c3Cl)cc2C(=O)N1` (racemic) [Compound 90, methyl 7-((2,3-dichlorophenyl)sulfonamido)-1-oxo-1,2,3,4-tetrahydroisoquinoline-3-carboxylate], the figure is 100 to 500 nM; as for `CC(Nc1ccc2ccn(C)c(=O)c2c1)c1ncc(Cl)s1` (racemic) [Compound 182, 7-((1-(5-chlorothiazol-2-yl)ethyl)amino)-2-methylisoquinolin-1(2H)-one], > 1000 nM; as for `CC(Nc1ccc2ccn(C)c(=O)c2c1)c1cncc(Cl)c1Cl` (racemic) [Compound 184, 7-((1-(4,5-dichloropyridin-3-yl)ethyl)amino)-2-methylisoquinolin-1(2H)-one], 100 to 500 nM. As for `CC(Nc1ccc2cc[nH]c(=O)c2c1)c1c(Cl)ccc(Cl)c1Cl` (racemic) [Compound 185, 7-((1-(2,3,6-trichlorophenyl)ethyl)amino)isoquinolin-1(2H)-one], the figure is < 100 nM; as for `CC(Nc1ccc2ccn(CC3CC3)c(=O)c2c1)c1cccc(Cl)c1Cl` (racemic) [Compound 186, 2-(cyclopropylmethyl)-7-((1-(2,3-dichlorophenyl)ethyl)amino)isoquinolin-1(2H)-one], 100 to 500 nM; as for `CC(Nc1ccc2cc[nH]c(=O)c2c1)c1nc(Cl)c(Cl)s1` (racemic) [Compound 187, 7-((1-(4,5-dichlorothiazol-2-yl)ethyl)amino)isoquinolin-1(2H)-one], < 100 nM.
